Assay results reported in article doi:10.1101/2021.06.15.448479v1 (biorxiv, 2021).

molecular target: T1, ACER3 (Homo sapiens, UniProt Q9NUN7); assay: FRETcer1 hydrolysis, FRET, crude membranes of overexpressing Sf9 cells; assay type: cell-based; settings: not given
T1 sequence (Q9NUN7 1-267): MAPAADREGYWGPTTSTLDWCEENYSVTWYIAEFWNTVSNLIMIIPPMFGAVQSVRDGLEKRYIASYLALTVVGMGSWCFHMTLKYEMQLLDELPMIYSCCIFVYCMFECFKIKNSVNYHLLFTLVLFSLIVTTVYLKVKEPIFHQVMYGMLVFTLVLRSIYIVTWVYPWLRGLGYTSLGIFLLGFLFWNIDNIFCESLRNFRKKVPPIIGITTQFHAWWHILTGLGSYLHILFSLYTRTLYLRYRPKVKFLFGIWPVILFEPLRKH

Molecule | IC50
O=C(Nc1cnn(C2CCC2)c1)N1CCC(c2cccc(F)c2)CC1 [Z2956776388] | 1.04 ± 0.35 µM
CCCCNC(=O)Cc1noc(C(C)c2cccc(O)c2)n1 (stereo not shown) [Z3016340412] | 1.21 ± 0.74 µM
Cc1noc(CCNC(=O)N2CCC(c3ccc(F)c(F)c3)CC2)n1 [Z1124621112] | 1.31 ± 0.95 µM
CCCC(C)NC(=O)c1ccc(Cl)c(Cl)c1 (stereo not shown) [NSC405020] | 5.29 ± 2.16 µM

molecular target: T1, ACER3; assay: as above; assay type: biochemical; settings: not given; remark: another data set of the same source

Molecule | IC50
CCCC(C)C(=O)Nc1ccc(Cl)c(C(F)(F)F)c1 (stereo not shown) [compound 02, Compound 02] | 0.7 µM
CC(C)[C@H]1CC[C@H](C(=O)Nc2ccc(Cl)c(Cl)c2)CC1 [compound 03, N-(3,4-dichlorophenyl)-4-isopropylcyclohexane-1-carboxamide] | 0.71 µM

molecular target: T1, ACER3; assay: biochemical; settings: not given

Molecule | IC50
CCCCCCCC/C=C\CCCCCCCC(=O)O [oleic acid] | 2.3 µM
CCCCCCCCCCCCCCCCCC(=O)O [stearic acid] | 29.3 µM
CCCCCCCCCCCCCCCC(=O)O [palmitic acid] | 12.6 µM
CCCCC/C=C\C/C=C\CCCCCCCC(=O)O [linoleic acid] | 1.5 µM
CCCCCCCCCCCCCC(=O)O [myristic acid] | 9.3 µM
CCCCCC/C=C\CCCCCCCC(=O)O [palmitoleic acid] | 1.9 µM

substrate: Cc1c(Br)c(=O)oc2cc3c(cc12)OC(CC(=O)NCCCCCC(=O)N[C@@H](CO)[C@H](O)/C=C/CCCCCCCCCNc1ccc([N+](=O)[O-])c2nonc12)O3; assay: cells, lysate or membranes; settings: detergent-purified ACER3

Molecule | Km
ACER3 (Homo sapiens) (protein) MAPAADREGYWGPTTSTLDWCEENYSVTWYIAEFWNTVSNLIMIIPPMFGAVQSVRDGLEKRYIASYLALTVVGMGSWCFHMTLKYEMQLLDELPMIYSCCIFVYCMFECFKIKNSVNYHLLFTLVLFSLIVTTVYLKVKEPIFHQVMYGMLVFTLVLRSIYIVTWVYPWLRGLGYTSLGIFLLGFLFWNIDNIFCESLRNFRKKVPPIIGITTQFHAWWHILTGLGSYLHILFSLYTRTLYLRYRPKVKFLFGIWPVILFEPLRKH | 10.76 ± 2.03 µM
